# Active and inactive are the calls of the source.
# Key:
# [1] = molecular target: 26S proteasome non-ATPase regulatory subunit 14 (Homo sapiens, UniProt O00487); experiment: inhibition of proteasome subunit RPN11 – biochemical, fluorescence polarization, uHTS hits, confirmation (AID 602368); format: functional
# Prothrombin = Prothrombin (Bos taurus, UniProt P00735); experiment: thrombin inhibition, dose response, biochemical, fluorescence polarization, uHTS hits (AID 602369); format: functional
# [2] = molecular target: 72 kDa type IV collagenase (Homo sapiens, UniProt P08253); experiment: Dose Response validation of uHTS RPN11 inhibitor hits using a MMP-2 Fluorescence assay.; format: functional
# [3] = molecular target: T1, Histone-lysine N-methyltransferase NSD2 (Homo sapiens, UniProt O96028); format: biochemical
# T1 sequence (O96028 whole entry): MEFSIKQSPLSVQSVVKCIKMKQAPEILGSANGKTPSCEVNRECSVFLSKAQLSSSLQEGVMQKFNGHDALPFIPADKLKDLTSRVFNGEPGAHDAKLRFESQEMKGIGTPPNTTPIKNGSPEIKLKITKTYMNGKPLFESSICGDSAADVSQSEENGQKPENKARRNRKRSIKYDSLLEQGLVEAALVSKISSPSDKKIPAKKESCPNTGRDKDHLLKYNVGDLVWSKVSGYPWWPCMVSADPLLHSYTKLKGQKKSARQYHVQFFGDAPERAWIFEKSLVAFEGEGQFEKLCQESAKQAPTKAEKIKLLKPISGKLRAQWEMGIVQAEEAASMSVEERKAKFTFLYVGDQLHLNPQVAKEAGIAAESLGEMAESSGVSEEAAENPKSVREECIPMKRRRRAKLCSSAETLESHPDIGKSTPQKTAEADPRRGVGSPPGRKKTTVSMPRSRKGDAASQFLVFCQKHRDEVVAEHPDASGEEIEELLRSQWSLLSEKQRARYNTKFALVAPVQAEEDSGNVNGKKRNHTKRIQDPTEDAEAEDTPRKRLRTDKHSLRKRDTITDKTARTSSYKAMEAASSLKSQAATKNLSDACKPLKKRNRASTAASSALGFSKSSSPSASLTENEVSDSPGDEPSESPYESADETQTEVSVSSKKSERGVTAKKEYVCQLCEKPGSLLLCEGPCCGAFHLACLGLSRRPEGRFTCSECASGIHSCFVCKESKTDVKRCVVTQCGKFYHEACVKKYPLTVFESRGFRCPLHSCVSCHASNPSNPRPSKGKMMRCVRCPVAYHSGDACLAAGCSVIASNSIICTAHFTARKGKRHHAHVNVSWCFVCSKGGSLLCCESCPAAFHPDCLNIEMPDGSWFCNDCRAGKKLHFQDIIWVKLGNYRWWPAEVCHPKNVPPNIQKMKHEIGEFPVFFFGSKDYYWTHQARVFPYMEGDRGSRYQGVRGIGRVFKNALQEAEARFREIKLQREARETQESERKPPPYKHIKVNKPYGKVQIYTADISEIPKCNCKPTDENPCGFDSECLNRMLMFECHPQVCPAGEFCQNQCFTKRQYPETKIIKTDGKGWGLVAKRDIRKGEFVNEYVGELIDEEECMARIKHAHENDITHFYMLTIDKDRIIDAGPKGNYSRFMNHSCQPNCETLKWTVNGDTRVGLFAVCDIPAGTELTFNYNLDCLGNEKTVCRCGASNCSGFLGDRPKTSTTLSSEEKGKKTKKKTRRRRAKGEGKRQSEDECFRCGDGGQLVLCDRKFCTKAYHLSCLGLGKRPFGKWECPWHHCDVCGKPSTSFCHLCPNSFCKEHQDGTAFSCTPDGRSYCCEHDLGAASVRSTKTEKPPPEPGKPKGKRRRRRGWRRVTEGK
# [4] = molecular target: T2, Rac GTPase-activating protein 1 (Homo sapiens, UniProt Q9H0H5); experiment: MgcRacGAP GTPase-activating activity inhibitors, confirmation, biochemical, ADP Hunter fluorescence, primary and confirmatory (AID 624330); format: functional
# T2 sequence (Q9H0H5 whole entry): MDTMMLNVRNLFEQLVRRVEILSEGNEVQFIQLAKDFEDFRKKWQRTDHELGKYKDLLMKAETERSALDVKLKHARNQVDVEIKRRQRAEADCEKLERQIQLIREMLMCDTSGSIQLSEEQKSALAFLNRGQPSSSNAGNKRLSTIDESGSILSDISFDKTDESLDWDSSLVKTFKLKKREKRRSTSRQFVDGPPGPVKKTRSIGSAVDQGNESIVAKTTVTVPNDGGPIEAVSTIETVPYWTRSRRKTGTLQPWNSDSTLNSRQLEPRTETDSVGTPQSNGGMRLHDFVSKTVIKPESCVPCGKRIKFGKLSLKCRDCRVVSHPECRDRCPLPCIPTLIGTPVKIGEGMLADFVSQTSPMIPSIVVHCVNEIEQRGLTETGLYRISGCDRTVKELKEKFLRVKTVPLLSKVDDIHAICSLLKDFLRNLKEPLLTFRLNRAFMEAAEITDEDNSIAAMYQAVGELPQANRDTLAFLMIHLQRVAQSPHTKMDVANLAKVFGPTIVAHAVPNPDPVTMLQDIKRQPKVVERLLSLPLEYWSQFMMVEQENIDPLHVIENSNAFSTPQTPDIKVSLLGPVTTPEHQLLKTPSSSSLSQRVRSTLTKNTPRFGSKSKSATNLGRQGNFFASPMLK
# [5] = inhibitors of Vif binding to APOBEC3G peptide, primary screen, biochemical, TR-FRET, GST-Vif 1-94, biotin-A3G peptide, dose response retest (AID 1117319); format: functional;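 note: TR-FRET signal of purified GST-Vif binding a biotinylated A3G peptide; inhibitors lower the FRET signal by blocking Vif and A3G binding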
# [6] = molecular target: T3, Polyadenylate-binding protein 1 (Homo sapiens, UniProt P11940); experiment: PABP1 MLLE–PAM2 binding inhibitor potency, dose response, biochemical, fluorescence polarization, FITC-PAM2 peptide (AID 602259); format: functional; conditions: read-out: IC50_Mean
# [7] = molecular target: T3, Polyadenylate-binding protein 1; experiment: PABP1 MLLE–PAM2 interaction inhibitors, dose response, miRNA deadenylation inhibitor project, biochemical, fluorescence polarization, Cy5-PAM2 peptide, secondary (AID 602260); format: functional; conditions: read-out: IC50_Mean
# [8] = molecular target: T4, Type-1 angiotensin II receptor (Homo sapiens, UniProt P30556); experiment: AT1 receptor antagonists, dose response, selectivity assay for APJ receptor antagonist project, cell-based, uHTS hits (AID 463214); format: functional;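 note: antagonist potency against angiotensin II stimulated AT1 response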
# T4 sequence (P30556 whole entry): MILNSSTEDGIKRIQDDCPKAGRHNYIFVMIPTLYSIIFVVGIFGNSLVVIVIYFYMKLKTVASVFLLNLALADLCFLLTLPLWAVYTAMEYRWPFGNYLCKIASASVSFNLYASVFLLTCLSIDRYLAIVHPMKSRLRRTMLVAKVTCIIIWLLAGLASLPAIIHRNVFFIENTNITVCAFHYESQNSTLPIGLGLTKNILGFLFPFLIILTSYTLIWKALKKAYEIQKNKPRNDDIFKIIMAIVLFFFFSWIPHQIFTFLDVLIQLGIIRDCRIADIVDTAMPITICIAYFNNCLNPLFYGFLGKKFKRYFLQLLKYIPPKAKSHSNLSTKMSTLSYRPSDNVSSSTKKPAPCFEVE
# Beta-galactosidase = Beta-galactosidase (Escherichia coli, UniProt Q8VNN2); experiment: PubChem AID 485352; format: functional
# Aminopeptidase N = molecular target: T5, Aminopeptidase N (Plasmodium falciparum FcB1/Columbia, UniProt O96935); experiment: P. falciparum M1AAP inhibitors, biochemical, fluorogenic H-Leu-NHMec substrate, 1536-well (AID 1445); design: species or system Plasmodium falciparum 3D7, 3D7
# T5 sequence (O96935 whole entry): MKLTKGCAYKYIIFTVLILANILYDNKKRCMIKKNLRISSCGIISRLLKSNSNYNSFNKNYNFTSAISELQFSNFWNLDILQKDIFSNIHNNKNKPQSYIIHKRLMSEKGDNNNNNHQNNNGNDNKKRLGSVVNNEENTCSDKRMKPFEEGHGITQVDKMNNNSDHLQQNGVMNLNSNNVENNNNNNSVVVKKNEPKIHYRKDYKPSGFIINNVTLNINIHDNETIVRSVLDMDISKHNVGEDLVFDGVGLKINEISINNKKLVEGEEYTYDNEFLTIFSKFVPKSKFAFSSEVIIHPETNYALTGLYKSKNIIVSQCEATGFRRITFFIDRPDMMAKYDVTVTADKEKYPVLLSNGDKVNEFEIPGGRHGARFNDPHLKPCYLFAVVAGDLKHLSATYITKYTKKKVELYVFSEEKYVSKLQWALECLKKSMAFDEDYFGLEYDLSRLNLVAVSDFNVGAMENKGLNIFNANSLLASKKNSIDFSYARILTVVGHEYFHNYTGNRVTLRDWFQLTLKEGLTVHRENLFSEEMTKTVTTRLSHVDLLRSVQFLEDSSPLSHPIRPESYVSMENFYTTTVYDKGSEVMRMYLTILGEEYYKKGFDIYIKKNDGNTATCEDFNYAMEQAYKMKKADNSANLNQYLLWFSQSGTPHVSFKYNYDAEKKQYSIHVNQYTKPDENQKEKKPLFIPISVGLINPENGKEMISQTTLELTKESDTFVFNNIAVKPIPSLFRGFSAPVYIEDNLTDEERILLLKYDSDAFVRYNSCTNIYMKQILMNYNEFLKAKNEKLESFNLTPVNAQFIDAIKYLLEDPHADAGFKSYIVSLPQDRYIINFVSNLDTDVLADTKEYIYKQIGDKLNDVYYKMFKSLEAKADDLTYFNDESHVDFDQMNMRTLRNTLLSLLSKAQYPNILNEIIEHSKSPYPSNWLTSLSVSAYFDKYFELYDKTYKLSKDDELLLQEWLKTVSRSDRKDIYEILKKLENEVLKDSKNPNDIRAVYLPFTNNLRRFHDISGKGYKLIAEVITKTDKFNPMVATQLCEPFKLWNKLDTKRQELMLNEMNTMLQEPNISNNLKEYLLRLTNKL
# [9] = cytotoxicity toward NIH3T3 fibroblasts, dose response, counter-screen, cell-based, ATP luminescence, mouse fibroblasts (AID 2010); format: functional;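 note: cells exposed to compound for about 90 hours before reading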
# [10] = inhibitors of intracellular T. cruzi replication, confirmation, NIH3T3 host cells, beta-gal luminescence (AID 2044); format: functional, cell-based;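 note: intracellular parasites grown in NIH/3T3 mouse fibroblasts as host cells; luminescent beta-galactosidase reporter signal from transgenic T. cruzi replicating inside host cells; inhibitors lower the luminescence signal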
# Cytochrome P450 2C9 = Cytochrome P450 2C9 (Homo sapiens, UniProt P11712)
# [11] = P. falciparum Dd2 growth inhibitors, dose response, SYBR Green, cherry-picked samples (AID 1159567); format: functional, cell-based
# [12] = P. falciparum 3D7-ScDHODH growth inhibitors, dose response, SYBR Green, dry powder samples (AID 1159570); format: functional, cell-based;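 note: parasite growth measured after 72 hours of compound exposure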
# [13] = P. falciparum Dd2 growth inhibitors, dose response, SYBR Green, dry powder samples (AID 1159566); format: functional, cell-based;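 note: potency for growth inhibition with lower SYBR green DNA signal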
# [14] = P. falciparum ATP4 D1247Y mutant growth inhibitors, dose response, NITD609-resistant line, SYBR Green, dry powder (AID 1159571); format: functional, cell-based;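 note: parasites synchronized at ring stage by sorbitol before testing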
# [15] = inhibitors of clade B AD8 Env fusion, dose response, cell-based, cherry-pick (AID 652062); format: functional;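 note: luciferase signal from cell-cell fusion driven by HIV-1 clade B AD8 Env; potency is for inhibitors of fusion seen as a drop in luminescence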
# [16] = inhibitors of HIV Env-driven cell fusion, dose response, cherry-pick (AID 652057); format: functional, cell-based
# Sequence of 72 kDa type IV collagenase (P08253 whole entry): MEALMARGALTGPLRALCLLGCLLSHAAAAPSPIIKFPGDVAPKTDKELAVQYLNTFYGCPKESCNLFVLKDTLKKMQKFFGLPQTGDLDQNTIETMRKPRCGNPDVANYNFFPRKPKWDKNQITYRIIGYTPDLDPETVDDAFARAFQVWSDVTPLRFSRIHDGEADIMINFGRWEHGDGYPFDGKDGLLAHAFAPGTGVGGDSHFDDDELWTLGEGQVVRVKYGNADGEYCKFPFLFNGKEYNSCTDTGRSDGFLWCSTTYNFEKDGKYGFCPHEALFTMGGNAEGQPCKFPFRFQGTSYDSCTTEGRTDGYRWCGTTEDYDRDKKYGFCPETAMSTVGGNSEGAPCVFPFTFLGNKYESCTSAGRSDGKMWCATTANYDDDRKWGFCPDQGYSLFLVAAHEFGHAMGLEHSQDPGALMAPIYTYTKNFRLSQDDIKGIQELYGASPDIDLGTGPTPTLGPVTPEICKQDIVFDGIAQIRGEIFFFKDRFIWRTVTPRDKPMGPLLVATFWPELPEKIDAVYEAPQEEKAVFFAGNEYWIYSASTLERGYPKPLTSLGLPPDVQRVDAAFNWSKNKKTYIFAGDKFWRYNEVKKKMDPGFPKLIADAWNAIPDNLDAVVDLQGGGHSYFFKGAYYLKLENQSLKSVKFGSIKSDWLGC
# T3 sequence (P11940 whole entry): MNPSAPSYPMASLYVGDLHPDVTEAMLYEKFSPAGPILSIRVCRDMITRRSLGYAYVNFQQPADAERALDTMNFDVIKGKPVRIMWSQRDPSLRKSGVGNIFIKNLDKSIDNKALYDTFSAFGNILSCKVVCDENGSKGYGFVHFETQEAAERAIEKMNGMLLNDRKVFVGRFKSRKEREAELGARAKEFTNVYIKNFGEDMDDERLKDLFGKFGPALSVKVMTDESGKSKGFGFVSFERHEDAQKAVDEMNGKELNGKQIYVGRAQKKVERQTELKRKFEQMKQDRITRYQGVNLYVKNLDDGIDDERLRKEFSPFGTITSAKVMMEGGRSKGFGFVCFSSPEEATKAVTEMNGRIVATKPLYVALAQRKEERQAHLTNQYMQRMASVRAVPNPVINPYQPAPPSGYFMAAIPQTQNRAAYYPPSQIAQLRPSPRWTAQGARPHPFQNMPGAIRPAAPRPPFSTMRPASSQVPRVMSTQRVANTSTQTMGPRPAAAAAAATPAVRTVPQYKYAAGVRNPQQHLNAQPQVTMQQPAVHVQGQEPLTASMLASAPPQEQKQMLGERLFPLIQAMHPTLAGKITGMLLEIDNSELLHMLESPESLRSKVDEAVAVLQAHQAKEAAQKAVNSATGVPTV
# Sequence of 26S proteasome non-ATPase regulatory subunit 14 (O00487 whole entry): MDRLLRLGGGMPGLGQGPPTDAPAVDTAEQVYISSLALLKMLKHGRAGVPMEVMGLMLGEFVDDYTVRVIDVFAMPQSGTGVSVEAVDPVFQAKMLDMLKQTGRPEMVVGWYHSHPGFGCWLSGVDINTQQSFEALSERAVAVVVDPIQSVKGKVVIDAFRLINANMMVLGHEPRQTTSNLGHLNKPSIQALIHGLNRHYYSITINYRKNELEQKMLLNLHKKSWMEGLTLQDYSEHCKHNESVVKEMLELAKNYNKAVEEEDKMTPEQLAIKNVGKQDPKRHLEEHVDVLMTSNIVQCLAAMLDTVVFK
# Sequence of Beta-galactosidase (Q8VNN2 whole entry): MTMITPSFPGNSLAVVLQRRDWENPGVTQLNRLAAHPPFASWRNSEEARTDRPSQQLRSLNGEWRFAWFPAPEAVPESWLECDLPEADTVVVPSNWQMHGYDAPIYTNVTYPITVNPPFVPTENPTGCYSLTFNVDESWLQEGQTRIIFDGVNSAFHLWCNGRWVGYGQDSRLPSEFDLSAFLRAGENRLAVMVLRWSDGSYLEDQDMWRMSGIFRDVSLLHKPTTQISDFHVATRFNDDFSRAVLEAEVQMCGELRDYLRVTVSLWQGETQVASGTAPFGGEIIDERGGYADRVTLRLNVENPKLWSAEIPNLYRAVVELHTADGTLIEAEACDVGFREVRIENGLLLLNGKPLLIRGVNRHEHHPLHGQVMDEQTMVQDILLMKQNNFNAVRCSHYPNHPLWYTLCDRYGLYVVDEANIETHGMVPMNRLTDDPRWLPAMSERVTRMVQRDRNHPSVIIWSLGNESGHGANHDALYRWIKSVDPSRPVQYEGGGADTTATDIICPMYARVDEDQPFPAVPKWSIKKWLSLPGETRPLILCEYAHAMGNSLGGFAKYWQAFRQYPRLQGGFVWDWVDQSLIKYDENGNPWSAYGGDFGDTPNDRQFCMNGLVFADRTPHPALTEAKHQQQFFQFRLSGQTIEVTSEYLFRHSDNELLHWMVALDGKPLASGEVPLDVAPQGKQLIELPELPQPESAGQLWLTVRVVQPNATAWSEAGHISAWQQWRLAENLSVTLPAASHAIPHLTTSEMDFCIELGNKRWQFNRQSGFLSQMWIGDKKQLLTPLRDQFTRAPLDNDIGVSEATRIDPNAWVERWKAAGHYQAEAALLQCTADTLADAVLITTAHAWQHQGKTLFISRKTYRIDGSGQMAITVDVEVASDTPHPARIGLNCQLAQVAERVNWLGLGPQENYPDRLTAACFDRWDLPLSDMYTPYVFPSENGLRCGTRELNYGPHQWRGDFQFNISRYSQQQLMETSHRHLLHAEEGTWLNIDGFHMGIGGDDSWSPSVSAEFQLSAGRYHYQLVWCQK
# Sequence of Cytochrome P450 2C9 (P11712 whole entry): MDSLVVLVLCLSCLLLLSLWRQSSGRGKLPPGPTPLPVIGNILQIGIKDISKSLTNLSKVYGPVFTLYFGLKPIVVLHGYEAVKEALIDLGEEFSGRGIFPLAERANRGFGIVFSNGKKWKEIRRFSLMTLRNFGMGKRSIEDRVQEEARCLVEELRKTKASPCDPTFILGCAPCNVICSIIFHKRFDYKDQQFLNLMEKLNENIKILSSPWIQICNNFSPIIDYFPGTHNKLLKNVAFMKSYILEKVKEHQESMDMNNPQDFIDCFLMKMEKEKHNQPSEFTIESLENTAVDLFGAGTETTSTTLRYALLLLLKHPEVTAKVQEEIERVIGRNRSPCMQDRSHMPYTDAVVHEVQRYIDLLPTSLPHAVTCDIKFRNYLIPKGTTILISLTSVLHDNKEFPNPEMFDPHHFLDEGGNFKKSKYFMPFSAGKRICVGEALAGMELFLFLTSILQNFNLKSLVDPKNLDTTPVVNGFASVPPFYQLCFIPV
smiles,measurement,setting,value
CCN(CC)CCOC(=O)c1ccc(NC=C2C(=O)NC(=O)NC2=O)cc1,IC50,[1],22.4 µM (active)
same,IC50,Prothrombin,32.4 µM (active)
same,IC50,[2],> 100 µM (inactive)
N=C1/C(=C\c2ccc(O)c(O)c2)C(=O)N=C2SC(CC(=O)N3CCOCC3)=NN12,AC50,[3],1.79 µM (active)
same,IC50,[4],63.6 µM (active)
O=S(=O)(Nc1ccc2c(c1)nc1n2CCN(Cc2ccccc2)C1)c1ccc(Cl)cc1,IC50,[5],> 100 µM (active)
COCCNC(=O)c1c(NC(=O)c2nc(SC)ncc2Cl)sc2c1CCCC2,IC50,[1],17.6 µM (active)
same,IC50,Prothrombin,50 µM (active)
same,IC50,[2],> 100 µM (inactive)
CSc1nc2oc3c(c2c2nncn12)CC(C)(C)SC3,IC50,[6],> 66 µM (inactive)
same,IC50,[7],> 66 µM (inactive)
C/C(=N\NC(=S)Nc1cccc(C)c1)c1ccccc1,IC50,[8],> 40 µM (not active)
same,IC50,[6],> 66 µM (inactive)
same,IC50,[7],> 66 µM (inactive)
same,EC50,Beta-galactosidase,> 40 µM (inactive)
O=C(CSc1nc2ccccc2o1)Nc1nc2c(s1)CCCC2,IC50,[1],30.6 µM (active)
same,IC50,Prothrombin,24 µM (active)
same,IC50,[2],> 100 µM (inactive)
Cn1cc(/C=N\O)nc2c(=O)n(-c3ccccc3)c(=O)nc1-2,IC50,[6],> 66 µM (inactive)
same,IC50,[7],> 66 µM (inactive)
O=C(CN1CCC(NC(=O)c2cccc(F)c2)CC1)NCc1ccccc1F,IC50,Aminopeptidase N,23.2 µM (active)
same,IC50,[5],> 100 µM (active)
CNCCCOc1cccc(Oc2ccccc2)c1,EC50,[9],> 30 µM (not active)
same,AC50,[3],> 20 µM (inactive)
same,EC50,[10],1.29 µM (active)
Cc1ccc[n+](CC(=O)c2cc3ccccc3oc2=O)c1,AC50,Cytochrome P450 2C9,1.78 µM (inconclusive)
same,IC50,[5],> 100 µM (active)
CC1SC(N/N=C/c2ccco2)=NC1=O (configuration not stated),IC50,[5],> 100 µM (active)
Cc1ccc(S(=O)(=O)N(C)C[C@@H]2OCc3ccccc3-c3c(n(C)c4ccccc34)C(=O)N([C@@H](C)CO)C[C@@H]2C)cc1,AC50,[11],0.611 µM (active)
same,AC50,[12],0.427 µM (active)
same,AC50,[13],0.346 µM (active)
same,AC50,[14],0.291 µM (active)
COc1cc(C(=S)N2CCOCC2)ccc1O [VANITIOLIDE],IC50,[6],> 66 µM (inactive)
same,IC50,[7],> 66 µM (inactive)
CC(c1nc(O)c2ccccc2n1)N(C)CCOc1ccc(Cl)cc1 (configuration not stated),AC50,[15],28.3 µM (active)
same,AC50,[16],57.3 µM (active)
COc1cccc(CN2CCNC(=O)C2CC(=O)NCCn2nc(C)cc2C)c1OC (configuration not stated),IC50,[5],> 100 µM (active)
